Drawing on ChEMBL document CHEMBL3860097, “Synthesis and biological evaluation of C-ring truncated deguelin derivatives as heat shock protein 90 (HSP90) inhibitors” (2016), this text covers inhibition and Activity for 42 molecules.

Experiment [1] addresses T1, Heat shock protein HSP90 (Homo sapiens) (UniProt P07900+P08238). Nature of the experiment: Inhibition of HSP90 in human H1299 cells assessed as suppression of HIF-1alpha at 100 nM preincubated for 72 hrs followed by incubation under hypoxic condition for 12 hrs by Western blot method relative to control. The experiment is classed as cell-based.
The species named for experiment [2] is Homo sapiens. Nature of the experiment: Antiangiogenic activity in HRMEC assessed as inhibition of VEGF-induced cell proliferation under hypoxic condition by measuring [3H]-thymidine incorporation at 100 nM preincubated for 24 hrs followed by [3H]-thymidine addition measured after 6 hrs by liquid scintillation counter. The experiment is classed as functional.

Experiment [3] is filed under the species Homo sapiens. Nature of the experiment: Antiangiogenic activity in HRMEC assessed as inhibition of VEGF-induced cell migration under hypoxic condition at 100 nM after 4 hrs by hematoxylin and eosin staining-based phase-contrast microscopy. It counts as functional.
The target of experiment [4] is T1, Heat shock protein HSP90 (Homo sapiens). Nature of the experiment: Inhibition of HSP90 in human H1299 cells assessed as suppression of HIF-1alpha at 10 nM preincubated for 72 hrs followed by incubation under hypoxic condition for 12 hrs by Western blot method relative to control. It counts as cell-based.
Another experiment deals with NCI-H1299. Nature of the experiment: Cytotoxicity against human H1299 cells assessed as decrease in cell viability by MTT assay. The experiment is classed as functional, cell-based.
A short description of experiment [5]: Cytotoxicity against human H1299 cells assessed as decrease in cell viability at 10 uM by MTT assay relative to control. It counts as functional, NCI-H1299.
In experiment [6] the target is T1, Heat shock protein HSP90 (Homo sapiens). The experiment in a line: Inhibition of HSP90 in human H1299 cells assessed as suppression of HIF-1alpha preincubated for 72 hrs followed by incubation under hypoxic condition for 12 hrs by Western blot method. It counts as cell-based.

SMILES strings stand for the structures. The source made the active and inactive calls. The rule behind the calls is not given here.

Turning to `COc1cc2nccc(C(OC(N)=O)c3ccc4c(c3OC)C=CC(C)(C)O4)c2cc1OC` (centres undefined), the inhibition in experiment [1] came to 81.2%. With `CC(C)c1cc(-c2n[nH]c(=O)n2-c2ccc3c(ccn3C)c2)c(O)cc1O`, the inhibition entry in the experiment listed under Homo sapiens [2] and in the experiment listed under Homo sapiens [3] was “Active” in each case. Take `COc1cc2cc(C(=O)c3ccc4ncccc4c3)oc2cc1OC`: in experiment [1], the inhibition came out at 40.6%. For the molecule `COc1cc2ccc(C(OC(C)=O)c3ccc4c(c3OC)C=CC(C)(C)O4)nc2cc1OC` (centres undefined), the inhibition in experiment [1] is 73%. For `COc1cc2nccc(C(OC(C)=O)c3ccc4ncccc4c3)c2cc1OC` (centres undefined), the inhibition in experiment [1] was 82.7%. For the molecule `COc1cc2ccc(C(OC(=O)C3CC3)c3ccc4c(c3OC)C=CC(C)(C)O4)nc2cc1OC` (centres undefined), in experiment [1], the inhibition was 71%. As for `COc1cc2ncnc(C(OC(C)=O)c3ccc4c(c3OC)C=CC(C)(C)O4)c2cc1OC` (centres undefined), in experiment [1], the inhibition amounted to 88.6%. Same read-out and setting: in the case of `COc1cc2nccc(C(NC(=O)C3CC3)c3ccc4c(c3OC)C=CC(C)(C)O4)c2cc1OC` (centres undefined) it was 85.5%; in that of `COc1cc2occ(C(OC(C)=O)c3ccc4c(c3OC)C=CC(C)(C)O4)c2cc1OC` (centres undefined), 81%. Take `COc1cc2nccc(C(OC(C)=O)c3ccc4ncccc4c3OC)c2cc1OC` (centres undefined): the inhibition in experiment [1] was determined as 67.4%. Take `COc1cc2cc(C(O)c3ccc4ncccc4c3)oc2cc1OC` (centres undefined): the inhibition in experiment [1] turned out to be 102%. In the case of `COc1cc2c(cc1OC)[C@@H]1C(=O)c3ccc4c(c3O[C@@H]1CO2)C=CC(C)(C)O4`, the inhibition in experiment [1] was found to be 64%; in experiment [4] it was 94%. In addition, the inhibition result in the experiment filed under Homo sapiens [2] and in the experiment filed under Homo sapiens [3] was “Active” throughout. `COc1cc2occ(C(=O)c3ccc4c(c3OC)C=CC(C)(C)O4)c2cc1OC`: the inhibition in experiment [1] worked out at 92.4%; in experiment [4], 105%. As to `COc1cc2cc(C(OC(C)=O)c3ccc4ncccc4c3)oc2cc1OC` (centres undefined), the values for the inhibition in experiment [1] and in experiment [4] were 56% and 88%, respectively. Regarding `COc1cc2nccc(C(NC(C)=O)c3ccc4c(c3OC)C=CC(C)(C)O4)c2cc1OC` (centres undefined), the inhibition in experiment [1] worked out at 72.9%. Take `COc1cc2nccc(C(OC(=O)C3CC3)c3ccc4c(c3OC)C=CC(C)(C)O4)c2cc1OC` (centres undefined): the inhibition in experiment [1] is 53.9%; in experiment [4], 63.3%; in experiment [6], “Dose-dependent effect”. Also, the Activity entry with NCI-H1299 is “Dose-dependent effect”; in experiment [5], <50%. The inhibition result in the experiment listed under Homo sapiens [2] and in the experiment filed under Homo sapiens [3] was “Active” each time. Regarding `COc1cc2cc(C(OC(=O)C3CC3)c3ccc4ncccc4c3)oc2cc1OC` (centres undefined), the inhibition in experiment [1] stood at 115%. As to `COc1cc2nccc(C(OC(=O)C3CC3)c3ccc4ncccc4c3)c2cc1OC` (centres undefined), in experiment [1], the inhibition came to 115%. On the same count and under the same terms, under `COc1cc2cc(C(OC(C)=O)c3ccc4c(c3OC)C=CC(C)(C)O4)oc2cc1OC` (centres undefined) stands 72.2%; under `COc1cc2nccc(/C(=N\O)c3ccc4c(c3OC)C=CC(C)(C)O4)c2cc1OC`, 64%. Same read-out and setting: in the case of `COc1cc2nccc(C(O)c3ccc4c(c3OC)C=CC(C)(C)O4)c2cc1OC` (centres undefined) it was 71.5%; in that of `CO/N=C(/c1ccc2c(c1OC)C=CC(C)(C)O2)c1ccnc2cc(OC)c(OC)cc12`, 54.2%. The same measure, in the same setting: in the case of `COc1cc2nccc(C(N)c3ccc4c(c3OC)C=CC(C)(C)O4)c2cc1OC` (centres undefined) it was 68.9%; in that of `COc1cc2nccc(C(OC(C)=O)c3ccc4c(ccn4C)c3)c2cc1OC` (centres undefined), 97.2%; in that of `CCCC(=O)OC(c1ccc2c(c1OC)C=CC(C)(C)O2)c1ccnc2cc(OC)c(OC)cc12` (centres undefined), 90%. On to `COc1cc2nccc(C(O)c3ccc4c(ccn4C)c3)c2cc1OC` (centres undefined), for which, in experiment [1], the inhibition turned out to be 102%.

As to `COc1cc2ccc(C(=O)c3ccc4c(c3OC)C=CC(C)(C)O4)nc2cc1OC`, the inhibition in experiment [1] amounted to 76%. Turning to `COc1cc2nccc(C(OC(C)=O)c3ccc4c(c3OC)C=CC(C)(C)O4)c2cc1OC` (centres undefined), the values for the inhibition in experiment [1] and in experiment [4] were 62.2% and 95.4%, respectively. With `COc1ccc(CC(=O)c2ccc3c(c2OC)C=CC(C)(C)O3)cc1OC`, the inhibition in experiment [1] is 85.3%. Regarding `COc1cc2nccc(C(OC(=O)C3CC3)c3ccc4c(ccn4C)c3)c2cc1OC` (centres undefined), in experiment [1], the inhibition was found to be 85%.

As for `COc1cc2ccc(C(O)c3ccc4c(c3OC)C=CC(C)(C)O4)nc2cc1OC` (centres undefined), the inhibition in experiment [1] was 86%. For `COc1cc2cc(/C(=N/O)c3ccc4c(c3OC)C=CC(C)(C)O4)oc2cc1OC`, in experiment [1], the inhibition came to 70.6%. Regarding `COc1cc2nccc(C(=O)c3ccc4c(ccn4C)c3)c2cc1OC`, in experiment [1], the inhibition amounted to 86%. As for `COc1cc2ncnc(C(OC(=O)C3CC3)c3ccc4c(c3OC)C=CC(C)(C)O4)c2cc1OC` (centres undefined), in experiment [1], the inhibition stood at 71.9%. Consider `COc1cc2nccc(C(=O)c3ccc4c(c3OC)C=CC(C)(C)O4)c2cc1OC`, for which the inhibition in experiment [1] was found to be 70.5%. For `CCC(=O)OC(c1ccc2c(c1OC)C=CC(C)(C)O2)c1ccnc2cc(OC)c(OC)cc12` (centres undefined), the inhibition in experiment [1] was 96.4%. Consider `CO/N=C(\c1cc2cc(OC)c(OC)cc2o1)c1ccc2c(c1OC)C=CC(C)(C)O2`, for which, in experiment [1], the inhibition was determined as 65.6%. On to `CO/N=C(/c1cc2cc(OC)c(OC)cc2o1)c1ccc2c(c1OC)C=CC(C)(C)O2`, for which the inhibition amounted to 66.5% in experiment [1] and 76.9% in experiment [4]. In the case of `COc1cc2cc(/C(=N\O)c3ccc4c(c3OC)C=CC(C)(C)O4)oc2cc1OC`, the inhibition in experiment [1] was 117%. On the same count and under the same terms, under `COc1cc2cc(C(=O)c3ccc4c(c3OC)C=CC(C)(C)O4)oc2cc1OC` stands 54.1%. Consider `COc1cc2nccc(C(OC(=O)C3CC3)c3ccc4ncccc4c3OC)c2cc1OC` (centres undefined), for which the inhibition in experiment [1] stood at 80.5%. On to `COc1cc2nccc(C(SC(C)=O)c3ccc4c(c3OC)C=CC(C)(C)O4)c2cc1OC` (centres undefined), for which the inhibition in experiment [1] worked out at 59.3%; in experiment [4] it was 74%. The Activity entry is “Dose-dependent effect” in the experiment on NCI-H1299 and <50% in experiment [5].
